Test results reported in publication PMC10527105, “Chirality Matters: Fine-Tuning of Novel Monoamine Reuptake Inhibitors Selectivity through Manipulation of Stereochemistry” (Biomolecules, 2023).
Entries after “also recorded” stand apart in the source; their conditions may differ.

Legend:
[1] = tested on: extracellular DA levels in the hippocampus; experiment: In vivo micro-dialysis in freely moving mice; design: species or system C57BL76J mice; conditions: for treatment effect on extracellular DA levels in hippocampus: 1 mg/kg i.p., experimental day 1; for time course of extracellular DA levels after the peak / increase of extracellular DA levels in hippocampus: 10 mg/kg i.p.; for time course of extracellular DA levels after the peak: experimental day 2; for increase of extracellular DA levels in hippocampus: experimental day 2, within 20 min of administration, relative to baseline
Experimental: Male, adult C57BL76J mice (Janvier-Labs, Saint Berthevin, France) were group-housed in individually ventilated cages under standard laboratory conditions (temperature 22 ± 2 °C, humidity 45–65%, with a 12:12 h light-dark cycle lights on at 07:00 h). Animals had free access to food and water. All experimental procedures were approved by the Austrian Animal Experimentation Ethical Committee (Bundesministerium für Wissenschaft, Forschung und Wirtschaft, Kommission für Tierversuchsangelegenheiten) in compliance with international laws and policies.
Under isoflurane anesthesia (at 5% and 1.5% for induction and maintenance, respectively), a commercially available guide cannula (MAB 4.15 with OD 0.48 mm and ID 0.35 mm, Microbiotech, Stockholm, Sweden) was implanted above the right hippocampus (AP = −2.1 mm, ML = +1.5 mm, DV = −0.7 mm from Bregma) and closed with a dummy probe as described previously. After surgery, animals received buprenorphine (0.5 mg/kg s.c.) and meloxicam (1.0 mg/kg p.o. via the drinking water) for analgesic care. They were allowed to recover for 5–7 days while being single-housed and habituated to the experimenter and experimental procedures. On the day before the experiment, the dummy was replaced by a microdialysis probe (MAB 4.15.1 PES, Microbiotech, Sweden) that extended the guide cannula by 1 mm, thus reaching into the dorsal hippocampus. Microdialysis probes were connected to a microinfusion pump (CMA, Stockholm, Sweden) and a swivel-tether system via polyethylene tubing. Probes were constantly superfused with artificial cerebrospinal fluid (aCSF); consisting of in mM: 140 NaCl, 3.0 KCl, 1.2 CaCl2, 1.0 MgCl2, 1.0 Na2HPO4, pH 7.4, at a flow rate of 0.5 µL/min overnight and 1.0 µL/min during sample collection, respectively. Microdialysis fractions were collected every 20 min in pre-cooled microtubes containing antioxidative protection solution (in mM: 0.27 Na2EDTA, 100 acetic acid, 0.0125 ascorbic acid), vortexed, and immediately frozen at −80 °C until further analysis. At any time, the dead volumes generated by the inlet and outlet systems were considered to cause a temporal delay in fraction collection.
On experimental day 1, vehicle (30% Kolliphor EL) or one of the two enantiomers -7h and 8h (1 mg/kg) was administered i.p. after six baseline samples, and another 12 samples were collected. On experimental day 2, the collection of dialysates was resumed. Again, 6 baseline samples and 12 samples after the administration of either vehicle (30% Kolliphor EL) or 7h/8h (10 mg/kg) were collected. At the end of the experiment, microdialysis probes were superfused with high (100 mM) depolarizing concentrations of potassium (K^+) containing aCSF in order to elicit local […] for testing the functionality of the microdialysis system. Thereafter, animals were euthanized with an overdose of thiopental, decapitated, and their brains removed. The localization of the microdialysis probe was verified by observing cresyl violet-stained coronal sections (40 µm) under a light microscope. Three animals were removed from the analysis due to misplaced probes.
Quantification of dopamine in microdialysates. The quantification of dopamine in microdialysates was performed using a high-performance liquid chromatography (HPLC) system for electrochemical detection, as previously described. The HPLC system consisted of a Shimadzu (Kyoto, Japan) system controller (CBM-20A), a degassing unit (DGU-20A3R), and a micro HPLC pump (LC-20AD) operating at a flow rate of 55 µL/min. Microdialysis samples (5 µL) were injected via a SIL-20ACHT autosampler (Shimadzu, Japan) and separated on a C18 reversed-phase column (Inertsil ODS-3; 50 mm × 1.0 mm ID; 3 µm particle sizes, GL Sciences Inc., Tokyo, Japan) placed in a DECADE II electrochemical detector equipped with an amperometric flow cell (Antec, Zoeterwoude, The Netherlands). […]

[2] = target: T1, noradrenaline transporter/SLC6A2 (NET) (Homo sapiens, UniProt P23975); experiment: Cellular uptake experiments: [3H]-noradrenaline reuptake inhibition in transporter-expressing HEK293 cells; format: cell-based
T1 construct: expressed in transfected cells; host or cells: HEK293
T1 sequence (P23975 whole entry): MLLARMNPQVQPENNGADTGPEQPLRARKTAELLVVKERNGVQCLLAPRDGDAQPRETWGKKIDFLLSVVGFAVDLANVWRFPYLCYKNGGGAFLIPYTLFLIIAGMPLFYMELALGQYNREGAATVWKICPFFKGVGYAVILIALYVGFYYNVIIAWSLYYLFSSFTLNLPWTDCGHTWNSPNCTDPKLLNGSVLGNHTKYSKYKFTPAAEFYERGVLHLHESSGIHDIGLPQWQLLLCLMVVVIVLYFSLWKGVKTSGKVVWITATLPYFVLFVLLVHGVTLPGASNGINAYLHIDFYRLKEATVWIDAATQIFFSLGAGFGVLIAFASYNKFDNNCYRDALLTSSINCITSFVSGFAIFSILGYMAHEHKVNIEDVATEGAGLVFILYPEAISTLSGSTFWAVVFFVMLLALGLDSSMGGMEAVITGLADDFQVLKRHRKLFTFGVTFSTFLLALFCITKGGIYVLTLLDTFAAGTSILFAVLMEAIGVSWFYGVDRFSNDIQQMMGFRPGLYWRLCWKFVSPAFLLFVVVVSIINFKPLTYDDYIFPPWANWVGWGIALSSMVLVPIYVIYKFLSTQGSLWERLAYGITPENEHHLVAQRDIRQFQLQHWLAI
In short: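 Stably transfected HEK293 cells preincubated 5 min with compound, then 1 µM [3H]-substrate for 2.5 min (SERT: 5 min) at 25 °C, pH 7.1 buffer; uptake counted by scintillation. Nonspecific uptake defined with 10 µM mazindol (DAT, NET) or 10 µM clomipramine (SERT).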

[3] = target: T2, human DAT (Homo sapiens, UniProt Q01959); experiment: Radioligand binding assay, [3H]BTCP, CHO cells (Eurofins Cerep)
T2 construct: host or cells: CHO
T2 sequence (Q01959 whole entry): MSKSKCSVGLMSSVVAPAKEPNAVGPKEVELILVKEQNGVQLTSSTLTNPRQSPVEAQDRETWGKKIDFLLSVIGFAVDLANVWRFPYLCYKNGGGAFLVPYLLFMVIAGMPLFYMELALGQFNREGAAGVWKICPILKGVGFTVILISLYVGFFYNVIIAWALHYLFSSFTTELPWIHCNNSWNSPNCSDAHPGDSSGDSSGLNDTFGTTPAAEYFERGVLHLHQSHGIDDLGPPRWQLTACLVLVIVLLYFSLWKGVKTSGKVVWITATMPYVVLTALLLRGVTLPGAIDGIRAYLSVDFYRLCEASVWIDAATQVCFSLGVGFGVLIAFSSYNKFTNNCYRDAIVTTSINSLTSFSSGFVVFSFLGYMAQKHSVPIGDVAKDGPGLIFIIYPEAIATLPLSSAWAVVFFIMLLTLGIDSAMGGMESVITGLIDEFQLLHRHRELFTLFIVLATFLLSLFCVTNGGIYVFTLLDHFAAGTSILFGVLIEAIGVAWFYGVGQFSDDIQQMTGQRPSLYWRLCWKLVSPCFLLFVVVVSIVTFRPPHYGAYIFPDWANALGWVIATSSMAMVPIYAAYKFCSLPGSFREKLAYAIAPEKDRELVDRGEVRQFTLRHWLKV
Experimental: Binding experiments. Binding affinity to the human DAT, SERT, and NET stable proteins expressed in CHO cells was evaluated in in vitro radioligand binding assays. Non-specific binding was determined using [^3H]BTCP, [^3H]imipramine, and ^[3H] nisoxetine for hDAT, hSERT, and hNET, respectively. The IC50 values were calculated by non-linear regression analysis of the competition curves generated from the mean replicate values. The Ki values were calculated using the Cheng–Prusoff equation (Ki = IC50/(1 + […])). Binding assays were carried out by Eurofins (Cerep SA, Celle l’Evescault, France), Study No. 100053935. For an in-depth description, please refer to the report in the supporting information file.

[4] = target: T3, DAT-expressing SK-N-MC cells (Homo sapiens, UniProt Q01959); experiment: Superfusion experiments: [3H]MPP+ efflux and d-amphetamine interaction; format: cell-based; conditions: for action on the dopamine-releasing effect of D-amphetamine: 3 µM D-amphetamine; for efflux-increasing (releasing) action on DAT-expressing, substrate-loaded superfused cells: compound alone
T3 construct: expressed in transfected cells; host or cells: SK-N-MC (human neuroblastoma)
T3 sequence (Q01959 whole entry, the tested form may be a part): as the sequence (Q01959 whole entry) above

What does the source list for `[O-][S@+](Cc1cccs1)[C@H](c1ccccc1)c1cccc(Br)c1` [Compound 8h, (R,R)-2-((((3-bromophenyl)(phenyl)methyl)sulfinyl)methyl)thiophene]?
treatment effect on extracellular DA levels in hippocampus [1]: no treatment effect; time course of extracellular DA levels after the peak [1]: constantly declined from the peak values; increase of extracellular DA levels in hippocampus [1]: approximately 35%; IC50 [2]: > 50000 nM; Ki [3]: 35 nM; action on the dopamine-releasing effect of D-amphetamine [4]: potent inhibiting action; efflux-increasing (releasing) action on DAT-expressing, substrate-loaded superfused cells [4]: absence of an efflux-increasing action; also recorded: lack of amphetamine-like effects

Which “treatment effect on extracellular DA levels in hippocampus” value [1] does the source give for `[O-][S@@+](Cc1cccs1)[C@@H](c1ccccc1)c1cccc(Br)c1` [Compound 7h, (S,S)-2-((((3-bromophenyl)(phenyl)methyl)sulfinyl)methyl)thiophene] here?
The value was “no treatment effect”.

What about the “time course of extracellular DA levels after the peak” value [1] of the same compound?
The value was “remained elevated throughout a 2 h time period”.

What about the “increase of extracellular DA levels in hippocampus” value [1] of the same compound?
The value was “approximately 35%”.

And the IC50 [2]?
The IC50 was 16400 ± 600 nM.

And the Ki [3]?
Its Ki is 13 nM.

What about the “action on the dopamine-releasing effect of D-amphetamine” value [4] of the same compound?
Its value is “potent inhibiting action”.

What about the “efflux-increasing (releasing) action on DAT-expressing, substrate-loaded superfused cells” value [4] of the same compound?
The value was “absence of an efflux-increasing action; also recorded: lack of amphetamine-like effects”.
